Measurements taken from publication PMC8217170, “Phase Ib dose-escalation study of the hypoxia-modifier Myo-inositol trispyrophosphate in patients with hepatopancreatobiliary tumors” (Nature Communications, 2021).
Where “and” joins values, the source holds several entries; their conditions need not be identical. Equal entries are not always repeated. Where two headings read alike, the source gives them in different places.

Legend:
[1] = test system: pancreatic carcinoma; set-up: method as in ref 15 (supplementary references); settings: ref 15 (supplementary references), cited from earlier work
[2] = test system: hepatocellular carcinoma; set-up: method as in ref 10 (supplementary references); settings: syngeneic, orthotopic rat model of hepatocellular carcinoma; ref 10 (supplementary references); cited from earlier work
[3] = test system: VEGFA; experiment: Serum angiogenesis marker, multiplex bead-based immunoassay (LEGENDplex); assay type: in vivo, human; set-up: VEGF: unit not given here; settings: for VEGF: serum, duplicate wells
[4] = set-up: method as in unpublished data obtained from NormOxys; settings: rats, once a week for 5 weeks; ref unpublished data obtained from NormOxys; cited from earlier work
[5] = test system: human colon carcinomatosis; set-up: method as in ref 12 (supplementary references); settings: xenogeneic mouse model of human colon carcinomatosis; ref 12 (supplementary references); cited from earlier work
[6] = set-up: method as in NormOxys phase I clinical trial; settings: ref NormOxys phase I clinical trial, cited from earlier work
[7] = test system: CEA, AFP, CA19-9; experiment: Circulatory tumor-specific markers before vs after ITPP; assay type: in vivo, human; settings: for Tumor marker AFP / Tumor marker CEA: individual patients
Text: Load the raw data of the tumor marker measurements, calculate fold changes (FC) and percentage changes comparing measurments per patient before and after ITPP treatment.

[8] = test system: patients with PDAC, CRLM, CCA and HCC; experiment: Progression free and overall survival; assay type: in vivo, human; settings: for Follow up from study start / Survival status: individual patients; for Survival status: per 31st of December 2018
Text: Ad hoc outcomes consisted of assessment of overall survival of patients in regard to tumor type and cohort as well as histological assessment of hypoxia markers in tumor tissue of selected patients.
Cohort size was based on the traditional 3 + 3 dose-escalation scheme without formal power or sample size calculation. Data are summarized with descriptive statistics using medians and interquartile ranges (IQRs) as indicated. Pearson’s coefficient was used to test for correlation between numerical variables, and Mann–Whitney U or Kruskal–Wallis tests for differences in continuous variables among groups. Kaplan–Meier curves and the Mantel–Cox log rank test were used for survival analyses. No adjustment for multiple testing was performed.

[9] = test system: VEGFA, ANG1/2, EGF, PECAM1/CD31; experiment: Serum angiogenic markers overall, before vs after ITPP; assay type: in vivo, human
Protocol: Serum angiogenesis markers were quantified by multiplex bead-based immunoassays following provided instructions (LEGENDplex™, Biolegend, San Diego, CA/USA). For biochemical markers, the percentage change comparing before (day 1 0 h) with after (last day 9 h) ITPP treatment was calculated.

[10] = of 22 patients with elevated markers, under ITPP

O=P1(O)OC2C3OP(=O)(O)OP(=O)(O)OC3C3OP(=O)(O)OP(=O)(O)OC3C2OP(=O)(O)O1 (stereo not drawn) [ITPP, Myo-inositol trispyrophosphate]
Survival ([1]; ITPP combined with half the usual dose of gemcitabine, all animals): > 200 days
Survival ([1]; ITPP treatment alone): 93 days
Rats alive after 100 days [2]: nine out of ten
Share of patients with reduced VEGFA ([3]; following ITPP treatment, 27 patients): 44.4%
VEGF ([3]; Patient 25, Cohort 8, PDAC, Day 3 post): 30.91
VEGF ([3]; Patient 25, Cohort 8, PDAC, Day 9 post): 33.24 and 35.03
VEGF ([3]; Patient 26, Cohort 8, PDAC, Day 3 post): 5.98 and 4.62
VEGF ([3]; Patient 26, Cohort 8, PDAC, Day 9 post): 11.09 and 13.08
VEGF ([3]; Patient 27, Cohort 8, CCC, Day 3 post): 10.87 and 8.9
VEGF ([3]; Patient 27, Cohort 8, CCC, Day 9 post): 8.12 and 8.9
VEGF ([3]; Patient 28, Cohort 8, CRLM, Day 3 post): 2.84
VEGF ([3]; Patient 28, Cohort 8, CRLM, Day 9 post): 2.84
Human equivalent dose-corrected NOAEL [4]: 15,000 mg/m2
Decrease of tumor growth compared with capecitabine [5]: more efficient than capecitabine
Subjects with treatment-emerged adverse effects (TEAEs) ([6]; ITPP-treated group, 750 to 5600 mg/m2, intravenous infusion during 4 h): 9/24
Dose well tolerated in unaffected volunteers [6]: 5600 mg/m2
Serious adverse effects or deaths associated with TEAEs [6]: No serious adverse effects (SAEs) or deaths
Patients with tumor markers not elevated ([7]; CEA, AFP, CA19-9): 5/27
Tumor marker AFP ([7]; Day 1 pre (baseline before ITPP)): 1572 µg/L and 11.2 µg/L and 270600 µg/L
Tumor marker CEA ([7]; Day 1 pre (baseline before ITPP), ITPP cohort 2): 2.8 µg/L
Tumor marker CEA ([7]; Day 1 pre (baseline before ITPP), ITPP cohort 3): 169.8 µg/L
Tumor marker CEA ([7]; Day 1 pre (baseline before ITPP), ITPP cohort 6): 3.2 µg/L and 1 µg/L and 291.6 µg/L
Tumor marker CEA ([7]; Day 1 pre (baseline before ITPP), ITPP cohort 7): 2205 µg/L and 2068 µg/L
Tumor marker CEA ([7]; Day 1 pre (baseline before ITPP), ITPP cohort 8): 7058 µg/L
Tumor marker AFP ([7]; Day 3 post): 1167 µg/L and 11.2 µg/L
Tumor marker CEA ([7]; Day 3 post, ITPP cohort 2): 2.9 µg/L
Tumor marker CEA ([7]; Day 3 post, ITPP cohort 3): 165.1 µg/L
Tumor marker CEA ([7]; Day 3 post, ITPP cohort 6): 3.2 µg/L and 2.3 µg/L and 300.1 µg/L
Tumor marker CEA ([7]; Day 3 post, ITPP cohort 7): 2190 µg/L and 2209 µg/L
Tumor marker CEA ([7]; Day 3 post, ITPP cohort 8): 7145 µg/L
Tumor marker AFP ([7]; Day 9 post): 1017 µg/L and 5.1 µg/L and 204800 µg/L
Tumor marker CEA ([7]; Day 9 post, ITPP cohort 2): 2.9 µg/L
Tumor marker CEA ([7]; Day 9 post, ITPP cohort 3): 247.8 µg/L
Tumor marker CEA ([7]; Day 9 post, ITPP cohort 6): 4.6 µg/L and 1 µg/L and 451 µg/L
Tumor marker CEA ([7]; Day 9 post, ITPP cohort 7): 2055 µg/L and 3058 µg/L
Tumor marker CEA ([7]; Day 9 post, ITPP cohort 8): 7626 µg/L
Patients with a decrease in tumor marker levels [7, 10]: 11
Patients with an increase in tumor marker levels [7, 10]: 11
Median OS from start of ITPP infusions ([8]; CCA): 302 days
Median progression free survival (PFS) ([8]; CCA): 158 days
Median OS from start of ITPP infusions ([8]; CRLM): 340 days
Median progression free survival (PFS) ([8]; CRLM): 23 days
Median OS from start of ITPP infusions ([8]; HCC): 684 days
Median progression free survival (PFS) ([8]; HCC): 345 days
Median OS from start of ITPP infusions ([8]; PDAC): 165 days
Median progression free survival (PFS) ([8]; PDAC): 32 days
Follow up from study start ([8]; cohort 1 (1866 mg/m2)): 16 days and 464 days and 159 days and 398 days
Survival status ([8]; cohort 1, 1866 mg/m2): Dead
Follow up from study start ([8]; cohort 2 (3732 mg/m2)): 783 days and 188 days and 158 days
Survival status ([8]; cohort 2, 3732 mg/m2): Dead
Follow up from study start ([8]; cohort 3 (5600 mg/m2)): 159 days and 171 days and 206 days
Survival status ([8]; cohort 3, 5600 mg/m2): Dead
Follow up from study start ([8]; cohort 4 (7000 mg/m2)): 193 days and 219 days and 684 days and 10 days
Survival status ([8]; cohort 4, 7000 mg/m2): Dead
Follow up from study start ([8]; cohort 5 (8750 mg/m2)): 196 days and 202 days and 68 days
Survival status ([8]; cohort 5, 8750 mg/m2): Dead
Follow up from study start ([8]; cohort 6 (10500 mg/m2)): 394 days and 510 days and 500 days and 301 days
Survival status ([8]; cohort 6, 10500 mg/m2): Dead and Alive
Follow up from study start ([8]; cohort 7 (12390 mg/m2)): 87 days and 380 days and 392 days
Survival status ([8]; cohort 7, 12390 mg/m2): Dead and Alive
Follow up from study start ([8]; cohort 8 (14500 mg/m2)): 43 days and 73 days and 266 days and 206 days
Survival status ([8]; cohort 8, 14500 mg/m2): Dead and Alive
Overall survival ([8]; patients with a lowering of PECAM1/CD31 under ITPP, p = 0.36): 380 days
Overall survival ([8]; patients with a lowering of VEGFA under ITPP, p = 0.053): 398 days
Overall survival ([8]; patients without lowering of PECAM1/CD31 under ITPP): 171 days
Overall survival ([8]; patients without lowering of VEGFA under ITPP): 196 days
Median OS from start of ITPP infusions ([8]; whole patient population): 206 days
Median progression free survival (PFS) ([8]; whole patient population): 48 days
Share of patients with decreases in angiogenic markers [9]: ~60%
